Source: patent US6599514B1, “Antifungal composition” (Syngenta Limited, priority 1997, dated 2003)

Tests used:
Type in all cases: cell-based
Fusarium culmorum = assay: Antifungal microplate growth inhibition assay (MIC); details: 48 h, 24° C.; for MIC / concentration required alone to give strong growth inhibition: medium B (½ PDB + 1 mM CaCl2 + 50 mM KCl), agent used alone
Experimental: (§1) Unless otherwise stated the incubation was carried out at 24° C. for 48 hours. Percentages of fungal growth were estimated by microscopic examination of the microplates after the incubation period. The control microcultures were used as a reference in order to estimate fungal growth inhibition.
(§2) The antifungal potency of the purified proteins was assessed on different food spoilage fungi using the assay described above. Growth of fungi, collection and harvest of fungal spores were done as previously described (Broekaert et al., 1990, FEMS Microbiol. Lett., 69: 55-60).
(§3) The percentage growth inhibition was estimated by microscopic inspection of the microtitre plates, taking the microculture control with no antifungal protein added as a reference for normal fungal growth.
(§4) The Ib-AMP1 pure protein was added to the test solution and mixed with the fungal spore suspension as described above. Following inoculation the plates were incubated at 24° C. for 48 hours. […] A summary of the results obtained is shown on table 14.

Penicillium chrysogenum = assay: Antifungal microplate growth inhibition assay (MIC, growth % of control); details: for Fungal growth as compared to the control: individual application; for MIC / concentration required alone to give strong growth inhibition: medium B (½ PDB + 1 mM CaCl2 + 50 mM KCl), agent used alone
Experimental: as §1, §2, §3
(§5) Following inoculation the plates were incubated at 24° C. for 48 hours.
(§6) Chitinase-I and β-1,3-glucanase were extracted and purified from tobacco according to the method published by Sela-Buurlage, M. B., et al., in 1993 (Plant Physiol. 101, 857-863). The purified enzymes were mixed in a 1:1 ratio and then tested for antifungal activity against the food spoilage fungal strains Penicillium roquefortii and P. chrysogenum. The antifungal assays were carried out as described above. Assessment of growth inhibition was carried out by microscopic examination after 48 and 96 hours incubation at 24° C.
(§7) In Colby's formula, E1=X1Y1/100, X1 and Y1 represent growth as a percentage of control with compound A (dosage p) and compound B (dosage q), respectively. E1 is the i5 expected growth as a percentage of control with the mixture A and B (dosage p+q). […] Comparison of the observed and expected percent inhibition responses (Eobs/Eexp) indicates synergism (Eobs/Eexp>1) or antagonism (Eobs/Eexp<1).

Penicillium roquefortii = assay: as above; details: for MIC / concentration required alone to give strong growth inhibition: medium B (½ PDB + 1 mM CaCl2 + 50 mM KCl), agent used alone; for Fungal growth as compared to the control: individual application
Experimental: as §1, §2, §3, §5, §6, §7

Alternaria sp. = assay: Antifungal microplate growth inhibition assay (MIC); details: 48 h, 24° C.; for MIC / concentration required alone to give strong growth inhibition: medium B (½ PDB + 1 mM CaCl2 + 50 mM KCl), agent used alone
Experimental: as §1, §2, §3, §5

Cladosporium sp. = assay: as above; details: 48 h, 24° C.; for MIC / concentration required alone to give strong growth inhibition: medium B (½ PDB + 1 mM CaCl2 + 50 mM KCl), agent used alone
Experimental: as §1, §2, §3, §5

Trichoderma harzianum = assay: as above; details: 48 h, 24° C.; for MIC / concentration required alone to give strong growth inhibition: medium B (½ PDB + 1 mM CaCl2 + 50 mM KCl), agent used alone
Experimental: as §1, §2, §3, §5

Mucor plumbeus = assay: as above; details: medium B (½ PDB + 1 mM CaCl2 + 50 mM KCl), 48 h, 24° C., agent used alone
[1] = tested on: range of food spoilage strains; assay: Antifungal microplate assay, statements on the whole range of strains; details: 200 ppm (maximum concentration tested), medium B, 48 hours, 24° C.
Experimental: as §1
The following fungal strains were used: Fusarium culmorum, Penicillium chrysogenum, Penicillium roquefortii, Penicillium commune, Penicillium nalgiovense, Mucor plumbeus, Scopulariopsis brevicaulis, Aspergillus versicolor, Alternaria sp., Cladosporium sp. and Trichoderma harzianum.
as §3, §4

Penicillium commune = assay: Antifungal microplate growth inhibition assay (MIC); details: medium B (½ PDB + 1 mM CaCl2 + 50 mM KCl), 48 h, 24° C., agent used alone
Experimental: Unless otherwise stated the incubation was carried out at 24° C. for 48 hours. Percentages of fungal growth were estimated by microscopic examination of the microplates after the incubation period. The control microcultures were used as a reference in order to estimate fungal growth inhibition. […] The antifungal potency of the purified proteins was assessed on different food spoilage fungi using the assay described above. Growth of fungi, collection and harvest of fungal spores were done as previously described (Broekaert et al., 1990, FEMS Microbiol. Lett., 69: 55-60). […] The percentage growth inhibition was estimated by microscopic inspection of the microtitre plates, taking the microculture control with no antifungal protein added as a reference for normal fungal growth.

[2] = medium B, 96 hours, 24° C., used alone
[3] = medium A (½ PDB), protein alone
[4] = medium A (½ PDB), 48 h, 24° C., protein alone

## COc1ccc(O)c(C(C)(C)C)c1 [BHA, butylated hydroxyanisole]
Fusarium culmorum
  MIC / concentration required alone to give strong growth inhibition: >200 ppm
Penicillium chrysogenum; 50 ppm, medium B
  Fungal growth as compared to the control: 99%
Penicillium chrysogenum; 48 h, 24° C.
  MIC / concentration required alone to give strong growth inhibition: >200 ppm
Penicillium roquefortii; 48 h, 24° C.
  MIC / concentration required alone to give strong growth inhibition: >200 ppm
Alternaria sp.
  MIC / concentration required alone to give strong growth inhibition: >200 ppm
Cladosporium sp.
  MIC / concentration required alone to give strong growth inhibition: >200 ppm
Trichoderma harzianum
  MIC / concentration required alone to give strong growth inhibition: >200 ppm
Mucor plumbeus
  MIC / concentration required alone to give strong growth inhibition: >200 ppm
[1]
  Antifungal activity of BHA added alone: no antifungal activity was observed

## O=C([O-])CN(CCN(CC(=O)[O-])CC(=O)[O-])CC(=O)[O-].[Ca+2].[Na+].[Na+] [CaNa2EDTA, calcium disodium EDTA]
Penicillium chrysogenum; 48 h, 24° C.
  MIC / concentration required alone to give strong growth inhibition: >150 ppm
Penicillium roquefortii; 48 h, 24° C.
  MIC / concentration required alone to give strong growth inhibition: >150 ppm

## O=C(O)CN(CCN(CC(=O)O)CC(=O)O)CC(=O)O [EDTA]
Penicillium chrysogenum; 48 h, 24° C.
  MIC / concentration required alone to give strong growth inhibition: 200 ppm
Penicillium roquefortii; 48 h, 24° C.
  MIC / concentration required alone to give strong growth inhibition: >200 ppm
Penicillium commune
  MIC / concentration required alone to give strong growth inhibition: >200 ppm

## C/C=C/C=C/C(=O)[O-].[K+] [K sorbate, potassium sorbate]
Penicillium chrysogenum; K sorbate alone, 96 hours incubation, medium B, strain not told apart from P. roquefortii
  Fungal growth inhibition, % of the controls: 10-20%
Penicillium chrysogenum; 48 h, 24° C.
  MIC / concentration required alone to give strong growth inhibition: 1000 ppm
Penicillium chrysogenum; [2]
  Concentration required alone to give strong growth inhibition: >2,000 ppm
Penicillium roquefortii; K sorbate alone, 96 hours incubation, medium B, strain not told apart from P. chrysogenum
  Fungal growth inhibition, % of the controls: 10-20%
Penicillium roquefortii; 500 ppm, medium B
  Fungal growth as compared to the control: 90%
Penicillium roquefortii; 48 h, 24° C.
  MIC / concentration required alone to give strong growth inhibition: 1500 ppm
Penicillium roquefortii; [2]
  Concentration required alone to give strong growth inhibition: >2,000 ppm

## CC(O)C(=O)O (stereo not shown) [Lactic acid, lactic acid]
Penicillium chrysogenum; 2500 ppm, medium B
  Fungal growth as compared to the control: 90%
Penicillium chrysogenum; 48 h, 24° C.
  MIC / concentration required alone to give strong growth inhibition: 20,000 ppm

## O=C([O-])CN(CCN(CC(=O)O)CC(=O)O)CC(=O)[O-].[Na+].[Na+] [Na2H2EDTA, disodium dihydrogen EDTA]
Penicillium chrysogenum; 75 ppm, medium B
  Fungal growth as compared to the control: 90%
Penicillium chrysogenum; 48 h, 24° C.
  MIC / concentration required alone to give strong growth inhibition: >150 ppm

## O=C([O-])c1ccccc1.[Na+] [Na benzoate, sodium benzoate]
Penicillium chrysogenum; 500 ppm, medium B
  Fungal growth as compared to the control: 99%
Penicillium chrysogenum; 48 h, 24° C.
  MIC / concentration required alone to give strong growth inhibition: 6000 ppm

## Rs-AFP2: purified antifungal protein of Raphanus sativus (radish) seeds, described in WO93/05153 (QKLCQRPSGTWSGVCGNNNACKNQCIRLEKARHGSCNYVFPAHKCICYFPC; UniProt P30230 30-80, looked up)
Fusarium culmorum; [3]
  MIC (minimum concentration giving more than 90% growth inhibition): 3.1 ppm
Fusarium culmorum
  MIC / concentration required alone to give strong growth inhibition: 12.5 ppm
Penicillium chrysogenum; [4]
  MIC (minimum concentration giving more than 90% growth inhibition): >200 ppm
Penicillium chrysogenum; 48 h, 24° C.
  MIC / concentration required alone to give strong growth inhibition: >200 ppm
Penicillium roquefortii; 3.1 ppm, medium B
  Fungal growth as compared to the control: 100%
Penicillium roquefortii; [4]
  MIC (minimum concentration giving more than 90% growth inhibition): 3 ppm
Penicillium roquefortii; 48 h, 24° C.
  MIC / concentration required alone to give strong growth inhibition: 25 ppm
Alternaria sp.; [3]
  MIC (minimum concentration giving more than 90% growth inhibition): 6.25 ppm
Alternaria sp.
  MIC / concentration required alone to give strong growth inhibition: 200 ppm
Cladosporium sp.; [3]
  MIC (minimum concentration giving more than 90% growth inhibition): 100 ppm
Cladosporium sp.
  MIC / concentration required alone to give strong growth inhibition: >200 ppm
Trichoderma harzianum; [3]
  MIC (minimum concentration giving more than 90% growth inhibition): 200 ppm
Trichoderma harzianum
  MIC / concentration required alone to give strong growth inhibition: >200 ppm
